Measured values published in US20180344639A1, “HYPOXIA-TARGETED POLYMERIC MICELLES FOR CANCER THERAPY AND IMAGING” (priority 2012, published 2018).

Tests used:
[1] = Encapsulation efficiency of drug in PMC of Example I by dialysis and UV/Vis absorbance; type: physicochemical; settings: PMC from Example I; dialysis 10,000 MWCO; tris buffer (pH 7.4) given for Drug A only
Experimental: (§1) The polymer is dissolved in deionized water or an aqueous buffer at a concentration of 0.010 g/mL. Drugs A is dissolved in DMSO at a concentration of 5 μg/μl. Drug A is added dropwise to the polymer solution with constant stirring at room temperature. The drugs are added over the course of 60 minutes resulting in a 2-5 fold molar excess over polymer. The solution is centrifuged to remove any precipitates and transferred to dialysis tubing with 10,000 MWCO. The solution is dialyzed against an aqueous buffer (50× volume) for 30 minutes.
(§2) The absorbance of the polymer-drug solution and dialysis buffer are recorded and compared to respective pre-dialysis samples by a UV/Vis spectrophotometer (polymer absorbance=280 nm; Drug A absorbance=450 nm). The encapsulation efficiency is calculated from the change in absorbance of the drug after this initial dialysis. The polymer-drug solution is dialyzed further with fresh buffer (50× volume) with multiple readings over the course of 72 hours with 4 buffer changes. The rate at which the drug is released from the polymeric micelle is calculated by the change in absorbance of the drug over time from the polymer-drug solution and dialysis buffer.
(§3) Encapsulation of Drug B is carried out by the same dialysis procedure as described in Example III for Drug A. Drug B is dissolved in DMSO to a stock solution of 2.5 mg/ml. […]

[2] = Release of drug from the polymeric micelle during dialysis, by change in absorbance; type: physicochemical; settings: PMC from Example I; 24 hours dialysis; tris buffer (pH 7.4) given for Drug A only
Experimental: as §1, §2, §3

CCCNC(=O)c1c(C)[nH]c(/C=C2\C(=O)Nc3ccc(F)cc32)c1C [Drug A]
Encapsulation efficiency [1]: greater than 80% | drug released [2]: 50%
